Entries after “also recorded” stand apart in the source; their conditions may differ. Marks after values point to notes of the source that are not given here.
Tests used:
AGS cells [1] = assay: Lactate dehydrogenase (LDH) cell damage assay after H/R; assay type: cell-based, human
Description: (§1) Hypoxia (Ischemia)/Normoxia (Reperfusion) (H/R) protocols for in vitro studies: For all experiments AGS, Caco-2 and RIE1 cells were set up in plates as described in specific methods. Cells were used at 70-80% confluence for cell injury/death assessment and as confluent monolayers for permeability studies. To induce “ischemia”, cells were placed in a hypoxic incubator (2% 02) for specified time and to mimic reperfusion, cells were placed back in a normoxic (21% 02) incubator for specified time. All treatments were duplicated in a second set of identical plates under normoxic conditions throughout the same test period as controls. To determine optimum conditions for the in vitro studies, pilot studies were performed.
Lactate dehydrogenase (LDH) assay: Cell damage was assessed using the activity of LDH released into the cell culture medium. LDH is a cytosolic enzyme present in many different cell types. Plasma membrane damage releases LDH into the cell culture media. At the end of the H/R period, supernatant was collected from all wells and LDH activity determined using a Pierce LDH Cytotoxicity Assay Kit (Thermo Fisher Scientific, Hemel Hempstead, UK) following manufacturer's instructions. Results are expressed as LDH activity and presented as mean+/−SEM of six wells.
Example 1A: Dose response study: To examine the effect of PSTI on H/R-induced cell injury in vitro, cells were set up in 96 well plates and pre-incubated in SFM containing glucose, with or without 5, 10 or 15 μg/ml PSTI for 1 hour (i.e. PSTI pre-treatment). These concentrations of PSTI were chosen based on previous studies examining cell migration (Marchbank et al., 2007, Am J Pathol 171(5):1462-73). The medium was replaced with SFM without glucose and placed in the hypoxia incubator for 4 hours. […]
Example 1B: Efficacy of PSTI given pre-, during- or post-hypoxic period. […] Cell Viability (MTT assay) and cell damage (LDH assay) were assessed. […] Cell Viability (MTT assay) and cell damage (LDH assay) were assessed.

Caco-2 cells = assay: Apoptotic and protective pathways after H/R in Caco-2 cells; assay type: cell-based, human
Description: as §1
Cleared cell lysates from I/R experiments in Caco-2 cells were assessed for levels of the apoptotic molecules Caspase 3 (FIG. 5A), Caspase 9 (FIG. 5I), Baxα (FIG. 5B) and Bcl2 (FIG. 5C). HIF1α (FIG. 5Δ), VEGF (FIG. 5E), hSP70 (FIG. 5F), ICAM1 (FIG. 5G) and the tight junction molecules ZO1 (FIG. 5H) and Claudin1 (FIG. 5J) levels were also analysed.

RIE1 cells = assay: Apoptotic and protective pathways after H/R in RIE1 cells; assay type: cell-based, rat; details: RIE1, Hyp 1 h/Rep 24 h + PSTI, mean +/− SEM
Description: as §1

AGS cells [2] = assay: Apoptotic and protective pathways after H/R in AGS cells; assay type: cell-based, human; details: Hyp 1 h/Rep 24 h + PSTI, mean +/− SEM
Description: as §1

DSS-induced colitis = details: rats, PSTI administration; cited from earlier work
NSAID-induced apoptosis = details: cited from earlier work
renal tissue = assay: Gut I/R model, renal tissue; details: kidney, I/R + PSTI 20 μg/kg ip, mean ± SEM
[3] = system: 90% small intestine (SI) tissue (non-clamped segment of bowel); assay: Gut I/R model, non-clamped 90% SI site; details: 90% SI non-clamped, mean ± SEM
[4] = Caco-2, 1 h or 4 h hypoxia + 24 h normoxia, PSTI 1 h before, vs H/R without PSTI
[5] = normoxic, any of the cell lines (data not shown)

For “pancreatic secretory trypsin inhibitor (DSLGREAKCYNELNGCTKIYDPVCGTDGNTYPNECVLCFENRKRQTSILIQKSGPC; listed as Homo sapiens) [PSTI]”, the “reduction of the rise in LDH” value (AGS cells [1]; AGS, 4 h hypoxia + 24 h reperfusion, PSTI 10 μg/ml 1 h before hypoxia) was 37%±2%, the “effect on cell damage (LDH activity) after H/R vs serum free medium” value (AGS cells [1]; PSTI added before H/R) was “significantly decreased cell damage” and the “LDH of cells not exposed to H/R” value (AGS cells [1]; normoxia, PSTI 10 microgram per ml) was “no change in viability or LDH; also recorded: no change in % LDH levels”. For the same substance, the “further increase in HIF1α above the 42% increase induced by H/R” value (Caco-2 cells; 4 h hypoxia+24 h reoxygenation, cells pre-treated with PSTI (FIG. 5D)) was 11%, the “further increase in VEGF above the 34% increase caused by H/R” value (Caco-2 cells; 4 h hypoxia+24 h reoxygenation, co-presence of PSTI (FIG. 5E)) was 15% and the “increase in hSP70 after H/R with PSTI” value (Caco-2 cells; 4 h hypoxia+24 h reoxygenation, H/R alone about 63% (FIG. 5F)) was “about 80%”. The Baxα activity (Caco-2 cells; [4]) was “significantly truncated; also recorded: significantly decreased Baxα activity”, the Bcl2 activity (Caco-2 cells; [4]) was “this effect was truncated; also recorded: significantly attenuated reduction in Bcl2 activity” and the “Caspase 3 activity” value (Caco-2 cells; [4]) was “significantly decreased Caspase 3 activity”. The “Caspase 9 activity” value (Caco-2 cells; [4]) was “significantly decreased Caspase 9 activity”, the Claudin1 activity (Caco-2 cells; [4]) was “significantly attenuated reduction in Claudin1 activity” and the HIF1α activity (Caco-2 cells; [4]) was “significantly increased HIF1α activity”. For the same substance, the ICAM1 activity (Caco-2 cells; [4]) was “not influenced by the presence of PSTI; also recorded: did not significantly affect ICAM1 activity”, the VEGF activity (Caco-2 cells; [4]) was “significantly increased VEGF activity” and the ZO1 activity (Caco-2 cells; [4]) was “significantly attenuated reduction in ZO1 activity”. The hSP70 activity (Caco-2 cells; [4]) was “significantly increased hSP70 activity”, the “truncation of the H/R-induced fall in ZO1 and Claudin1” value (Caco-2 cells; after 4 hours of hypoxia (FIG. 5H, 5J)) was “about 50%” and the “Caspase 3, 9, Baxα or Bcl2 under normoxic conditions” value (Caco-2 cells; [5]) was “no effect on Caspase 3, 9, Baxα or Bcl2”. The “HIF1α or VEGF under normoxic conditions” value (Caco-2 cells; [5]) was “no effect on HIF1α or VEGF”, the “ICAM1 levels under normoxic conditions” value (Caco-2 cells; normoxic, any of the cell lines tested (data not shown)) was “no effect on ICAM1 levels” and the Baxα (RIE1 cells) was 97.6 +/− 0.01 ** $ % normoxic. For the same substance, the Bcl2 (RIE1 cells) was 49.3 +/− 1.91 ** $$ % normoxic, the “Caspase 3” value (RIE1 cells) was 112.3 +/− 2.70 * % normoxic and the “Caspase 9” value (RIE1 cells) was 120.6 +/− 17.02 * $ % normoxic. The Claudin 1 (RIE1 cells) was 75.6 +/− 2.1 ** $$ % normoxic, the HIF1α (RIE1 cells) was 144.1 +/− 0.17 ** $$ % normoxic and the ICAM1 (RIE1 cells) was 115.4 +/− 1.09 ** % normoxic. For the same substance, the VEGF (RIE1 cells) was 121.8 +/− 2.53 ** $$ % normoxic, the ZO1 (RIE1 cells) was 83.6 +/− 0.69 * $ % normoxic and the hSP70 (RIE1 cells) was 122.9 +/− 0.85 ** % normoxic. For the same substance, the Baxα (AGS cells [2]) was 110.9 +/− 2.79 * $ % normoxic, the Bcl2 (AGS cells [2]) was 49.3 +/− 1.91 ** $$ % normoxic and the “Caspase 3” value (AGS cells [2]) was 228.2 +/− 18.72 * $ % normoxic. For the same substance, the “Caspase 9” value (AGS cells [2]) was 119.8 +/− 13.25 * $ % normoxic, the Claudin 1 (AGS cells [2]) was 77.3 +/− 3.63 ** $$ % normoxic and the HIF1α (AGS cells [2]) was 145.2 +/− 0.66 ** $$ % normoxic. For the same substance, the ICAM1 (AGS cells [2]) was 113.6 +/− 0.12 **^ % normoxic, the VEGF (AGS cells [2]) was 125.82 +/− 2.0 ** $$ % normoxic and the ZO1 (AGS cells [2]) was 82.1 +/− 0.98 ** $ % normoxic. The hSP70 (AGS cells [2]) was 132.9 +/− 1.05 ** $ % normoxic, the DSS-induced colitis (DSS-induced colitis) was “reduces NSAID-induced gastric injury and DSS-induced colitis” and the NSAID-induced apoptosis (NSAID-induced apoptosis) was “reduces NSAID-induced apoptosis”. For the same substance, the Baxα (renal tissue) was 5.61 ± 0.63 pg/μg total protein, the Bcl2 (renal tissue) was 66.37 ± 4.89 pg/μg total protein and the “Caspase 3 activity” value (renal tissue) was 0.069 ± 0.019 Change in absorbance. The “Caspase 9 activity” value (renal tissue) was 0.053 ± 0.010 Change in absorbance, the “Claudin 1” value (renal tissue) was 0.154 ± 0.016 pg/μg total protein and the MDA (renal tissue) was 0.47 ± 0.047 nmol/μg of protein. For the same substance, the ZO1 (renal tissue) was 0.151 ± 0.008 pg/μg total protein, the hSP70 (renal tissue) was 36.6 ± 2.96 pg/μg total protein and the “Histological score (0-5)” value ([3]; I/R + PSTI 20 μg/kg ip 1 h before clamping, 30 min ischemia/3 h reperfusion) was 0.142 ± 0.142. For the same substance, the Bcl2 ([3]; I/R + PSTI 20 μg/kg ip) was 5.55 ± 1.00 pg/μg total protein, the “Caspase 3” value ([3]; I/R + PSTI 20 μg/kg ip) was 0.021 ± 0.007 Change in absorbance and the “Caspase 9” value ([3]; I/R + PSTI 20 μg/kg ip) was 0.014 ± 0.00052 Change in absorbance. For the same substance, the “Claudin 1” value ([3]; I/R + PSTI 20 μg/kg ip) was 0.152 ± 0.014 pg/μg total protein and the ZO1 ([3]; I/R + PSTI 20 μg/kg ip) was 0.17 ± 0.008 pg/μg total protein.

— patent US20200323954A1, “METHODS AND COMPOSITIONS FOR REDUCING GUT ISCHEMIA/REPERFUSION-INDUCED INJURY” (PanTheryx, Inc., priority 2019, published 2020)
